Measurements: patent US20230028441A1, “NOVEL HETEROARYL-TRIAZOLE COMPOUNDS AS PESTICIDES” (Bayer Aktiengesellschaft, priority 2019, published 2023)

Tests used:
Format in all cases: in vivo
[1] = test system: cattle tick larvae (Rhipicephalus microplus), strain Parkhurst, resistant against synthetic pyrethroids; assay: Rhipicephalus (Boophilus) microplus in-vitro contact test, larval cattle tick; conditions: 5 μg/cm^2 (=500 g/ha), after 48 hours, read-out: efficacy (larvae dead or moribund)
Outline: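 Acetone solutions of compound were coated on glass tube walls (900 ppm giving 5 μg/cm^2) and dried. 20–50 pyrethroid-resistant Parkhurst larvae were held per tube at 27° C and 85% relative humidity; after 48 h negative geotaxis scored efficacy as percent larvae dead or moribund.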

[2] = test system: adult engorged female ticks (Rhipicephalus microplus); assay: Rhipicephalus (Boophilus) microplus injection test; conditions: 168 h, egg deposition after 7 days, read-out: efficacy (infertile eggs); for pest or weed control at 0.004 mg: 4 μg/animal; for pest or weed control at 0.02 mg: 20 μg/animal
Outline: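 Compound was dissolved in DMSO at 10 mg per 0.5 mL and diluted with DMSO to the test concentration. Five engorged adult females received a 1 μL abdominal injection and were kept in a climate chamber. After 7 days, fertile egg deposition was scored, with unclear eggs held until hatching at about 42 days; 100% efficacy means all eggs were infertile.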

[3] = test system: adult cat fleas (Ctenocephalides felis); assay: Ctenocephalides felis in-vitro contact test, adult cat flea; conditions: 5 μg/cm^2 (=500 g/ha), after 48 hours, read-out: efficacy (fleas dead or moribund)
Outline: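 Acetone solutions were coated on glass tube walls, 900 ppm giving 5 μg/cm^2. After drying, 5-10 adult fleas per tube were held 48 h at room temperature. Fleas unable to climb away from a 45-50 °C heating plate within 5 min were scored dead or moribund, as % efficacy.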

[4] = test system: adult unfed cat fleas (Ctenocephalides felis); assay: Ctenocephalides felis oral test; conditions: 48 h, 100 ppm in cattle blood, after 2 days
Outline: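 About 20 adult unfed Ctenocephalides felis fed through parafilm on cattle blood dosed with compound (DMSO stock diluted in blood), blood chamber at 37°C, fleas at room temperature. Mortality (%) scored after 2 days; 100% means all fleas killed.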

[5] = test system: southern root-knot nematode (Meloidogyne incognita); assay: Meloidogyne incognita test; conditions: 336 h, after 14 days, read-out: nematicidal activity (gall formation)
Procedure: Solvent: 125.0 parts by weight of acetone
To produce a suitable preparation of active compound, 1 part by weight of active compound is mixed with the stated amount of solvent, and the concentrate is diluted with water to the desired concentration.
Vessels are filled with sand, a solution of the active ingredient, a suspension containing eggs and larvae of the southern root-knot nematode (Meloidogyne incognita) and salad seeds. The salad seeds germinate and the seedlings grow. Galls develop in the roots.
After 14 days the nematicidal activity is determined on the basis of the percentage of gall formation. 100% means no galls were found and 0% means the number of galls found on the roots of the treated plants was equal to that in untreated control plants.

[6] = test system: green peach aphid (Myzus persicae); assay: Myzus persicae oral test; conditions: 120 h
Outline: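 Acetone stock (1 pbw compound/100 pbw solvent) diluted in water; mixed with sugar-supplemented IPL41 medium; parafilm-sealed; mixed aphid population sucks through film; mortality % read at 5 d.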

[7] = test system: green peach aphid (Myzus persicae); assay: Myzus persicae spray test; conditions: foliar, 120 h, 100 g/ha, after 5 days, Chinese cabbage leaf disks
Outline: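 Chinese cabbage leaf disks carrying all instars of Myzus persicae were sprayed with compound. The formulation was acetone/dimethylformamide diluted in water with 1000 ppm alkylarylpolyglycol ether emulsifier. Percent mortality was scored after 5 days, with 100% meaning all aphids killed.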

[8] = test system: larvae of the southern green stink bug (Nezara viridula); assay: Nezara viridula spray test; conditions: in Hordeum vulgare, 96 h
Outline: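 Barley plants infested with Nezara viridula larvae were sprayed with compound in acetone/dimethylformamide, diluted in water containing 1000 ppm alkylarylpolyglycol ether emulsifier. Mortality (%) was scored after 4 days; 100% means all stink bugs killed.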

[9] = test system: fall armyworm larvae (Spodoptera frugiperda); assay: Spodoptera frugiperda spray test (maize leaf sections); conditions: 168 h
Outline: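 Maize leaf sections were sprayed with compound formulated in acetone/DMF and diluted in water containing 1000 ppm emulsifier. Once dry, sections were infested with fall armyworm larvae. Mortality (%) was scored after 7 days.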

[10] = test system: larvae of the banded cucumber beetle (Diabrotica balteata); assay: Diabrotica balteata spray test; conditions: 168 h, 100 g/ha (=32 μg/well), after 7 days, wheat seeds, read-out: efficacy (seedlings grown up)
Outline: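 Germinated wheat seedlings (5 per well, agar plates) sprayed with compound in acetone/DMF diluted in water with 1000 ppm emulsifier, then infested with 10-20 larvae per unit. Efficacy scored after 7 days as % seedling growth relative to untreated, uninfested control (100% = normal growth, 0% = none).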

[11] = test system: brown planthopper (Nilaparvata lugens); assay: Nilaparvata lugens spray test; conditions: in Oryza sativa, 96 h
Outline: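 Rice plants (Oryza sativa) sprayed with compound in acetone/DMF diluted in water containing 1000 ppm alkylarylpolyglycol ether emulsifier, then infested with planthoppers. Mortality % scored after 4 days (100% = all killed, 0% = none killed).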

[12] = test system: cattle ticks (Rhipicephalus microplus) strain Parkhurst, SP-resistant; assay: Rhipicephalus (Boophilus) microplus dip test; conditions: 100 ppm, egg deposition after 7 days
Procedure: Test animal: cattle ticks (Rhipicephalus microplus) strain Parkhurst, SP-resistant
Solvent: dimethyl sulfoxide
To produce a suitable preparation of active compound, 10 mg of active compound are dissolved in 0.5 mL solvent, and the concentrate is diluted with water to the desired concentration.
This compound solution is pipetted into tubes. 8-10 engorged, adult, female cattle ticks (Rhipicephalus microplus) are placed in perforated tubes. These tubes are immersed in the aqueous compound solution until the ticks are completely moistened. After the liquid has drained off, the ticks are transferred to a filter paper in a plastic tray and stored in a climate chamber.
After 7 days egg deposition of fertile eggs is monitored. Eggs where fertility is not visible are stored in a climate chamber till hatching after about 42 days. An efficacy of 100% means all eggs are infertile; 0% means all eggs are fertile.

Row | SMILES | pest or weed control at 5 µg/cm2 [1] | pest or weed control at 0.004 mg [2] | pest or weed control at 0.02 mg [2] | pest or weed control at 5 µg/cm2 [3] | mortality at 100 ppm [4] | pest or weed control at 20 ppm [5] | mortality at 4 ppm [6] | mortality at 100 g/ha [7] | mortality at 100 g/ha [8] | mortality at 100 g/ha [9] | pest or weed control at 32 µg/disc, 100 g/ha [10] | mortality at 100 g/ha [11] | efficacy (infertile eggs) [12] | mortality at 500 g/ha [8]
1 | CC(NC(=O)c1cc(Cl)cc(C(F)(F)F)c1)c1nc(C(=O)NC2CC2)nn1-c1ncccn1 (single isomer, unassigned) [I-076, 5-[1-[[3-chloro-5-(trifluoromethyl)benzoyl]amino]ethyl]-N-cyclopropyl-1-pyrimidin-2-yl-1,2,4-triazole-3-carboxamide] | 90% | 100% | 100% | 100% | 100% | 90% | 100% | 90% | 100% | 100% |  |  |  | 
2 | C[C@H](NC(=O)c1cc(Br)cc(Br)c1)c1nc(N2CCOCC2)nn1-c1ncccn1 [I-144] | 100% |  |  | 90% |  | 90% |  |  |  |  | 100% |  |  | 
3 | CC(NC(=O)c1cc(Cl)cc(C(F)(F)F)c1)c1nc(C(=O)NC2CC2)nn1-c1ccc(C#N)cn1 (centres unmarked) [I-078] | 90% | 100% | 100% |  | 100% | 90% | 90% |  |  | 100% | 100% |  |  | 
4 | CNC(=O)c1nc(C(C)NC(=O)c2cc(Cl)cc(C(F)(F)F)c2)n(-c2ncccn2)n1 (centres unmarked) [I-077] |  | 100% | 100% | 90% | 100% | 90% | 100% | 90% | 100% |  |  | 90% |  | 
5 | CC(NC(=O)c1cc(Cl)cc(C(F)(F)F)c1)c1nc(N)nn1-c1ncccn1 (racemic) [I-004, N-[1-(5-amino-2-pyrimidin-2-yl-1,2,4-triazol-3-yl)ethyl]-3-chloro-5-(trifluoromethyl)benzamide] | 90% | 100% |  | 100% | 100% |  | 100% |  |  |  | 100% |  | 80% | 
6 | C=CC(=O)Nc1nc(C(C)NC(=O)c2cc(Cl)cc(C(F)(F)F)c2)n(-c2ccc(Cl)cn2)n1 (centres unmarked) [I-123] | 90% |  |  | 100% |  | 90% |  |  |  | 100% | 100% |  |  | 100%
